# Measurements: PubChem BioAssay (NCI)
#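 Grown in 96-well plates, cells were treated for 48 hours with each compound at five concentrations. Insufficient inhibition: endpoint recorded as highest concentration tested. GI50 marks 50% less growth. The concentration for full growth arrest is given as TGI.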
# Test system: MDA-MB-468 breast
# Test: growth of human tumour cells (NCI), 48 h
Structure (SMILES),GI50 [µM],TGI [µM]
O=C(CC1(O)C(=O)N(Cc2ccccc2)c2ccc(F)cc21)c1ccc(C(=O)NCC2CCC3(CC2)OOC2(CCCCC2)OO3)cc1 (centres undefined),1.35,3.39
CCOC(=O)C(Cc1ccc(CCCC(=O)NCCC(=O)Nc2ccc3nc(C)sc3c2)cc1)C(=O)OCC,17.6,58.1
O=C(Nc1ccncc1)C(=O)c1cn(S(=O)(=O)c2ccc(F)cc2)c2ccccc12,1.67,> 100
C=CCCCCOc1ccccc1-c1cnc(OCCCCC=C)n1C,1.93,7.86
O=C(c1ccccc1)c1cc2ccccc2o1,48.2,> 100
C[C@@H]1CC[C@@H]2[C@@H]1[C@H](OC(=O)/C=C/c1ccccc1)[C@]1(C3CCCCC3)C[C@@H](OC(=O)CO)[C@@]2(C)O1,3.33,11.1
CCCN1C(=O)N(CCC)C2C1NC(=S)N2/N=C/C=C/c1ccccc1OC (centres undefined),0.372,17
COc1c(OC[C@H](O)CN2CCOCC2)ccc2c3n(c(=NC(=O)c4cccnc4C)nc12)CCN3,0.143,1.95
COc1cc(Cn2c(-c3ccccc3)c(Cl)c3c2-c2oncc2CC3)cc(OC)c1,2.49,7.69
COc1ccc(C(=O)/C=C/c2cc(-c3cc(OC)c(OC)c(OC)c3)n[nH]2)cc1OC,0.759,2.18
CCOC(=O)Nc1ccc(-c2nc(-c3cccc(OCCN4CCOCC4)c3)c(-c3ccnc(Br)c3)[nH]2)cc1,1.68,3.66
CC[C@H]1[C@@H]2C=C[C@@H]3[C@H]4C/C=C\C(=O)NCCC[C@@H]5NC(=O)/C(=C(O)/C=C/[C@@H]4C[C@@H]3[C@H]2C[C@H]1C)C5=O,2.02,5.16
C=C(C)[C@@H]1CC[C@]2(C)[C@H](CC=C3[C@@H]4CC(C)(C)CC[C@]4(C(N)=O)CC[C@]32C)[C@@]1(C)CCC#N,2.41,8.42
CC(=O)O[C@@H]1C[C@H]2O[C@@H]3C=C(C)CC[C@]3(C)[C@]1(C)[C@]21CO1,4.92,18.2
COc1ccc2[nH]cc(C3(c4c[nH]c5ccc(OC)cc45)C(=O)Nc4ccc(F)cc43)c2c1,2.07,5.67
CC(=O)OC12C=CC(=O)N1c1ccccc1C(=O)O2 (centres undefined),> 100,> 100
Cc1ncc(C(=O)Nc2ccc(CN3CCN(C)CC3)c(C(F)(F)F)c2)cc1C#Cc1cnc(N)c2ccncc12,1.87,4.4
Cc1nn(-c2ccc(Cl)cc2)c2nc3c(nc12)C(=O)c1ccccc1-3,58.5,> 100
O=C(N[C@@H](c1ccc(Cl)c(Cl)c1)C1CNC1)c1ccc2cnccc2c1,0.0617,0.638

Structure (SMILES),GI50 [µM],TGI [µM]
Cn1cc(-c2csc(-c3c[nH]c4ccc(F)cc34)n2)c2cnccc21,1.45,3.19
Nc1c(C(=O)Nc2ccncc2)sc2nc3c(cc12)CCCCCCCC3,0.966,1.76
O=C1OCC2=C1C(c1cccc(Br)c1)c1cc3c(cc1N2CCO)CCC3 (centres undefined),0.0436,1.14
CC(C)Oc1ccc2cc(-c3nn(CC4CCNCC4)c4ncnc(N)c34)ccc2c1,6.9,21
[Cl][Hg][c]1cc[c]([Hg][Cl])o1,1.58,3.32
COc1cc(F)ccc1-c1ncnc(Nc2cccc(CS(C)(=N)=O)c2)n1 (centres undefined),0.895,5.56
COc1ccc(-c2nn(-c3ccc(NC(=O)c4ccc(Cl)c(Cl)c4)cc3)cc2-c2ccncc2)cc1Cl,3.15,> 50
CN1C(=O)N(C)C2C1NN=c1s/c(=C\c3ccc(Cl)cc3Cl)c(=O)n12 (centres undefined),0.183,33.4
Cc1ccc(NC(=O)CC2CC2)cc1-c1ccc(C(=O)NCC2CC2)cc1,> 15,> 25
Cc1cc2nc3c4cc(Cl)ccc4n(CC(=S)NCCN(C)C)c3nc2cc1C,1.95,3.96
COc1cc2c(c(OC)c1OC)-c1ccc(SC)c(=O)cc1C(NC=O)CC2 (centres undefined),< 0.01,> 100
CS(=O)(=O)CCNCc1nc(-c2ccc3ncnc(Nc4ccc(OCc5cccc(C(F)(F)F)c5)cc4)c3c2)cs1,1.55,> 20.9
COc1cccc2c1C(=O)c1c(O)c3c(c(O)c1C2=O)C[C@](O)(C(=O)CO)C[C@H]3O[C@@H]1C[C@@H](NC(=O)CCCCCN(C)C2(c3ccc(F)cc3)CC3CCC2C3)[C@H](O)[C@@H](C)O1 (some centres undefined),5.87,13.5
COc1cc(-c2cc(-c3cc4c([nH]c5ccccc54)c(-c4cc(OC)c(OC)c(OC)c4)n3)cc(-c3ccccc3)n2)cc(OC)c1OC,1.73,4.61
C#C[C@]1(O)CCC2C3CCc4cc(O)ccc4C3CC[C@@]21C (some centres undefined),1.84,6.2
CNCC#Cc1c(F)ccc2c1/C(=C/c1[nH]ccc1OC)C(=O)N2,0.279,0.858
CCSc1ncnc2c1ncn2C1OC(CO)C(O)C1O (centres undefined),0.583,17.6
Cn1cc(C2=C(c3cn(CCCCO)c4ccccc34)C(=O)NC2=O)c2ccccc21,12,> 25
